Molecules are shown by their SMILES.

A short description of this assay: Ability of a test compound to regulate transcription of a Type I collagen gene using the expression level of a reporter gene (COL-Luc luciferase) as an index. The class given is cell-based. Conditions: final concentration 1 μM; normal human fetal skin fibroblast transfected with COL-Luc; TGF-β, 40 hours; read-out: inhibition percentage (inhibitory effect on the ability of TGF-β to promote transcription of a Type I collagen gene). The procedure: 1×10^8 cells of a normal human fetal skin fibroblast (Clontech, catalogue No. CC-2509) were cultured at 37° C. overnight under 5% CO2 atmosphere. After the cultured cells were washed with a sodium phosphate buffer (hereinafter, referred to as PBS) twice, 3 ml of PBS was added thereto and the cells were scraped away the wall of a vessel using a cell scraper (Nalgen, catalogue No. 179693). The scraped cells were collected by centrifugation (1,500 rpm, 4° C., 15 min), and these were suspended in 20 ml of PBS and centrifuged again. To the resulting precipitates were added 11 ml of Solution 2 and 4.8 μl of pronase of DNA Extraction Kit (Stratagene, catalogue No. 200600). After shaken at 60° C. for 1 hour, the resulting mixture was allowed to stand in ice for 10 minutes. Then, 4 ml of Solution 3 of the kit was added to the mixture. After mixed, the mixture was allowed to stand in ice for 5 minutes and then centrifuged (3,000 rpm, 4° C., 15 min) to recover a supernatant. To the recovered supernatant was added 2 μl of RNase per 1 ml of the supernatant and the mixture was allowed to stand at 37° C. for 15 minutes. To the mixture was added 2-fold volume of ethanol. After mixed, a white thread-like substance (genomic DNA) appeared and the substance was recovered. The recovered genomic DNA washed with 70% ethanol and then air-dried. The air-dried genomic DNA was dissolved in 500 μl of 10 mM Tris-HCl, 1 mM EDTA (pH 8.0) (hereinafter, referred to as TE).
The resulting genomic DNA solution (the amount equivalent to 1 μg of genomic DNA), each 1 μl (10 pmol/μl) of an oligonucleotide consisting of the nucleotide sequence represented by SEQ ID No:1 and an oligonucleotide consisting of the nucleotide sequence represented by SEQ ID No:2, 29 μL of distilled water, 5 μl of the buffer attached to TaKaRa LA Taq (TAKARA SHUZO, catalogue No. RR002A), 5 μL of a Mg^2+ solution, 5 μL of a dNTP mixture and 0.5 μl of TaKaRa LA Taq (TAKARA SHUZO, catalogue No. RR002A) were mixed. After the resulting mixed solution was incubated at 94° C. for 5 minutes, the mixed solution was subjected to 30 cycles, in which one cycle consists of incubation at 94° C. for 1 minute, at 60° C. for 1 minute and then at 72° C. for 1 minute. The mixed solution was electrophoresed on a 2% agarose gel to recover about 0.5 kb of a DNA. The recovered DNA was treated with phenol/chloroform and then precipitated with ethanol to recover the DNA. The resulting DNA was dissolved in ultrapure water. To this solution were added 2.5 μl of NheI and 2.5 μl of HindIII, and then incubated at 37° C. for 3 hours. Then, the solution was electrophoresed on a 2% agarose gel to recover about 3.5 kb of a DNA. The recovered DNA was precipitated with ethanol to recover again the DNA (hereinafter, referred to as the collagen promoter DNA).
On the other hand, the vector pGL3 (Promega, catalogue No. E1751) having the nucleotide sequence encoding firefly luciferase was digested with NheI and HindIII, and then subjected to agarose gel electrophoresis as described above to recover about 5 kb of a DNA. The recovered DNA was precipitated with ethanol to recover the DNA again. To the recovered DNA were added 44 μl of distilled water, 5 μl of Buffer attached to Alkaline Phosphatase (TAKARA SHUZO, catalogue No. 2120A) and 1 μl of Alkaline Phosphatase (TAKARA SHUZO, catalogue No. 2120A). The mixed solution was incubated at 65° C. for 30 minutes. Then, the mixed solution was treated with phenol/chloroform twice, and precipitated with ethanol to recover the DNA (hereinafter referred to as the Luc vector DNA). Then, after about 20 ng of the collagen promoter DNA and about 20 ng of the Luc vector DNA were mixed, the same amount of a DNA Ligation kit Ver2 enzyme solution was added and this was incubated overnight at 16° C. To the mixed solution was added Escherichia coli 5Hdα (TOYOBO, catalogue No. DNA-903), this was allowed to stand in ice for 30 minutes, and then incubated at 42° C. for 45 seconds. […]
On to `C=CCOc1cccc(C=CC(=O)c2c(OCC=C)cc(C)oc2=O)c1` [(1b), 4-allyloxy-3-[3-(3-allyloxyphenyl)-1-oxo-2-propenyl]-6-methyl-2H-pyran-2-one], for which the inhibition at 1 µM was not below 70%.
Consider `COc1cc(C)oc(=O)c1C(=O)C=Cc1cccc(C=CC#N)c1` [(2a), 4-methoxy-3-[3-[3-(2-cyanoethenyl)phenyl]-1-oxo-2-propenyl]-6-methyl-2H-pyran-2-one], for which the inhibition at 1 µM was not below 70%.
The value for `C#CCOc1cccc(C=CC(=O)c2c(OCC=C)cc(C)oc2=O)c1` [(2b), 4-allyloxy-3-[3-(3-propargyloxyphenyl)-1-oxo-2-propenyl]-6-methyl-2H-pyran-2-one] was not below 70%.
The value for `C=CCOc1cccc(C=CC(=O)c2c(OC)cc(C)oc2=O)c1` [(5a), 4-methoxy-3-[3-(3-allyloxyphenyl)-1-oxo-2-propenyl]-6-methyl-2H-pyran-2-one] was not below 70%; that for `C#CCOc1cccc(C=CC(=O)c2c(O)cc(C)oc2=O)c1` [(7a), 4-hydroxy-3-[3-(3-propargyloxyphenyl)-1-oxo-2-propenyl]-6-methyl-2H-pyran-2-one] was not below 70%.
In the case of `C#CCOc1ccc(C=CC(=O)c2c(OC)cc(C)oc2=O)cc1` [(10a), 4-methoxy-3-[3-(4-propargyloxyphenyl)-1-oxo-2-propenyl]-6-methyl-2H-pyran-2-one], the inhibition at 1 µM was not below 70%.
Turning to `CSCCOc1cccc(C=CC(=O)c2c(N3CCCCC3)cc(C)oc2=O)c1` [(14b), 4-piperidino-3-[3-[3-(2-methylthioethoxy)phenyl]-1-oxo-2-propenyl]-6-methyl-2H-pyran-2-one], the inhibition at 1 µM is not below 70%.
The value for `N#CCOc1cccc(C=CC(=O)c2c(O)c3ccccc3oc2=O)c1` [(14d), 4-hydroxy-3-[3-[3-(cyanomethoxy)phenyl]-1-oxo-2-propenyl]-2H-1-benzopyran-2-one] was not below 70%.
Consider `COc1cc(C)oc(=O)c1C(=O)C=Cc1cccc(OCC#N)c1` [(15a), 4-methoxy-3-[3-[3-(cyanomethoxy)phenyl]-1-oxo-2-propenyl]-6-methyl-2H-pyran-2-one], for which the inhibition at 1 µM was not below 70%.
The figure for `COc1c(C(=O)C=Cc2cccc(OCC#N)c2)c(=O)oc2ccccc12` [(15d), 4-methoxy-3-[3-[3-(cyanomethoxy)phenyl]-1-oxo-2-propenyl]-2H-1-benzopyran-2-one] is not below 70%; for `COC(=O)CNC(=O)c1cccc(C=CC(=O)c2c(N3CCCCC3)cc(C)oc2=O)c1` [(16b), 4-piperidino-3-[3-[3-[[(methoxycarbonylmethyl)amino]carbonyl]phenyl]-1-oxo-2-propenyl]-6-methyl-2H-pyran-2-one] it is not below 70%; for `COCC(=O)Nc1cccc(C=CC(=O)c2c(N3CCCCC3)c3ccccc3oc2=O)c1` [(17e), 4-piperidino-3-[3-[3-(methoxyacetylamino)phenyl]-1-oxo-2-propenyl]-2H-1-benzopyran-2-one] it is not below 70%.
Regarding `COCCOC(=O)Nc1cccc(C=CC(=O)c2c(N3CCCCC3)c3ccccc3oc2=O)c1` [(18e), 4-piperidino-3-[3-[3-[(2-methoxyethoxy)carbonylamino]phenyl]-1-oxo-2-propenyl]-2H-1-benzopyran-2-one], the inhibition at 1 µM was not below 70%.
With `C#CCNc1cc(C)oc(=O)c1C(=O)C=Cc1cccc(C=CC#N)c1` [(20b), 4-propargylamino-3-[3-[3-(2-cyanoethenyl)phenyl]-1-oxo-2-propenyl]-6-methyl-2H-pyran-2-one], the inhibition at 1 µM is not below 70%.
The value for `COCC(=O)Nc1cccc(C=CC(=O)c2c(OC)cc(C)oc2=O)c1` [(22a), 4-methoxy-3-[3-[3-(methoxyacetylamino)phenyl]-1-oxo-2-propenyl]-6-methyl-2H-pyran-2-one] was not below 70%; that for `COCCOC(=O)Nc1cccc(C=CC(=O)c2c(O)cc(C)oc2=O)c1` [(24a), 4-hydroxy-3-[3-[3-[(2-methoxyethoxy)carbonylamino]phenyl]-1-oxo-2-propenyl]-6-methyl-2H-pyran-2-one] was not below 70%; that for `COCCOC(=O)Nc1cccc(C=CC(=O)c2c(O)c3ccccc3oc2=O)c1` [(24d), 4-hydroxy-3-[3-[3-[(2-methoxyethoxy)carbonylamino]phenyl]-1-oxo-2-propenyl]-2H-1-benzopyran-2-one] was not below 70%.
The figure for `COCCOC(=O)Nc1cccc(C=CC(=O)c2c(OC)cc(C)oc2=O)c1` [(25a), 4-methoxy-3-[3-[3-[(2-methoxyethoxy)carbonylamino]phenyl]-1-oxo-2-propenyl]-6-methyl-2H-pyran-2-one] is not below 70%; for `COCCOC(=O)Nc1cccc(C=CC(=O)c2c(OC)c3ccccc3oc2=O)c1` [(25d), 4-methoxy-3-[3-[3-[(2-methoxyethoxy)carbonylamino]phenyl]-1-oxo-2-propenyl]-2H-1-benzopyran-2-one] it is not below 70%; for `Cc1cc(O)c(C(=O)C=Cc2ccc(C(=O)NCCO)cc2)c(=O)o1` [(32d), 4-hydroxy-3-[3-[4-[(2-hydroxyethyl)aminocarbonyl]phenyl]-1-oxo-2-propenyl]-6-methyl-2H-pyran-2-one] it is not below 70%.
The value for `COCCNC(=O)c1ccc(C=CC(=O)c2c(O)cc(C)oc2=O)cc1` [(36a), 4-hydroxy-3-[3-[4-[(2-methoxyethyl)aminocarbonyl]phenyl]-1-oxo-2-propenyl]-6-methyl-2H-pyran-2-one] was not below 70%; that for `COCC(=O)Nc1cccc(C=CC(=O)c2c(OC)c3ccccc3oc2=O)c1` [Compound (22d), 4-methoxy-3-[3-[3-(methoxyacetylamino)phenyl]-1-oxo-2-propenyl]-2H-1-benzopyran-2-one] was not below 70%.

These data come from patent US7691883B2, “Cinnamoyl compound and use of the same” (Sumitomo Chemical Company, Limited, priority 2003, dated 2010).
